Results reported in ChEMBL document CHEMBL3137667, “[Drug-induced liver injury; fourteenth updated edition of the bibliographic database of liver injuries and related drugs]” (Gastroenterol Clin Biol, 2004).

What was measured:
[1] = Proposed mechanism(s) of liver damage. [column 'MEC' in source]; settings: human
[2] = human
[3] = human, serum
[4] = Comments (NB not yet translated). [column 'COMMENTAIRES' in source]; settings: human
[5] = human; remark: listed apart in the source
[6] = human; remark: listed apart in the source
[7] = human; remark: listed apart in the source
[8] = Presence of at least one case with successful reintroduction. [column 'REINT' in source]; settings: human
[9] = Times to onset, minimal and maximal, observed in the indexed observations. [column 'DELAI' in source]; settings: human
[10] = human; remark: listed apart in the source
[11] = Highest frequency of acute liver toxicity observed during clinical trials, expressed as a percentage. [column '% AIGUE' in source]; settings: human
[12] = human, serum; remark: listed apart in the source
[13] = Highest frequency of moderate liver toxicity observed during clinical trials, expressed as a percentage. [column '% BIOL' in source]; settings: human
[14] = human; remark: listed apart in the source
[15] = human; remark: listed apart in the source
[16] = human; remark: listed apart in the source
[17] = human, serum, 4383 h
[18] = human; remark: listed apart in the source
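Throughout, for Hepatotoxicity (association with vascular disease): count of indexed literature references reporting vascular liver injury in humans, e.g. peliosis hepatitis, hepatic veno-occlusive disease or Budd-Chiari syndrome.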
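Throughout, for Hepatotoxicity (benign tumour): value is a count of indexed literature references citing a benign tumour confirmed by histopathology.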
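Throughout, for Hepatotoxicity (choleostasis): human cholestatic liver injury, shown by histopathology or by peak ALT or AST elevation over alkaline phosphatase ratio below 2, value counts indexed literature reports.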
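Throughout, for Hepatotoxicity (chronic liver disease): chronic liver injury confirmed by histopathology or persistently raised serum aminotransferase activity beyond 6 months, value given as the count of indexed literature references.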
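Throughout, for Hepatotoxicity (cirrhosis): value is a count of indexed literature references reporting cirrhosis confirmed by histopathology.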
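Throughout, for Hepatotoxicity (cytolytic): human cytolytic liver injury, shown by histopathology or by a ratio above 5 of peak ALT or AST elevation to alkaline phosphatase elevation, value counts indexed references.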
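Throughout, for Hepatotoxicity (granulomatous hepatitis): value is a count of indexed literature references reporting granulomatous liver disease confirmed by histopathology.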
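Throughout, for Hepatotoxicity (malignant tumour): malignant tumour confirmed by histopathology, value gives the count of indexed literature references reporting it.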
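Throughout, for Hepatotoxicity (severe hepatitis): human clinical data: severe hepatitis, meaning potentially life-threatening liver failure or clinically observed cases, the value counts how many indexed literature references report it.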
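Throughout, for Hepatotoxicity (steatosis): steatosis confirmed by histopathology, value is the count of indexed references.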

Structure (SMILES) | Hepatotoxicity (mechanism) [1] | Hepatotoxicity (cirrhosis) [2] | Hepatotoxicity (acute) [3] | Hepatotoxicity (comment) [4] | Hepatotoxicity (cytolytic) [5] | Hepatotoxicity (choleostasis) [6] | Hepatotoxicity (association with vascular disease) [7] | Hepatotoxicity (successful reintroduction) [8] | Hepatotoxicity (time to onset) [9] | Hepatotoxicity (steatosis) [10] | Hepatotoxicity (acute) [11] [%] | Hepatotoxicity (moderate) [12] | Hepatotoxicity (moderate) [13] [%] | Hepatotoxicity (malignant tumour) [14] | Hepatotoxicity (granulomatous hepatitis) [15] | Hepatotoxicity (severe hepatitis) [16] | Hepatotoxicity (chronic liver disease) [17] | Hepatotoxicity (benign tumour) [18] | other results
CCC(c1ccccc1)c1c(O)c2ccccc2oc1=O (configuration not stated) [PHENPROCOUMON] | Allergic | 1 | 18 | RC/ACENOCOUMAROL/WARFARINE CHOLANGITE AC_ANTI-ML/-N | 14 | 7 | 0 | yes | 6 days - 7 years | 0 | 0 | 2 | 37 | 0 | 1 | 4 | 1 | 0 | –
O=C1Nc2ccccc2C1(c1ccc(O)cc1)c1ccc(O)cc1 [OXYPHENISATINE] | Allergic | 8 | 6 | AC_ANTI-ADN/-N/-ML | 1 | 0 | 0 | yes | 1 week - 13 years | 0 | 0 | 0 | 0 | 0 | 0 | 1 | 27 | 0 | –
Cc1ncc([N+](=O)[O-])n1CC(O)CCl (configuration not stated) [ORNIDAZOLE] | Allergic | 0 | 2 | AC_ANTI-ML/-N | 2 | 0 | 0 | yes | 3 days - 6 months | 0 | 0 | 1 | 0 | 0 | 0 | 0 | 1 | 0 | –
CC1(C)S[C@@H]2[C@H](NC(=O)[C@H](N)c3ccc(O)cc3)C(=O)N2[C@H]1C(=O)O.O=C(O)[C@H]1/C(=C/CO)O[C@@H]2CC(=O)N21 | Allergic | 1 | 74 | CHOLANGITE #CBP AC_ANTI-N RC/ERYTHROMYCINE | 21 | 61 | 0 | yes | < 1 day - 15 weeks | 7 | 0.3 | 15 | 15 | 0 | 6 | 8 | 0 | 0 | –
CC(C)c1nc(CN(C)C(=O)N[C@H](C(=O)N[C@@H](Cc2ccccc2)C[C@H](O)[C@H](Cc2ccccc2)NC(=O)OCc2cncs2)C(C)C)cs1 [RITONAVIR] | Dose-dependant | 0 | 14 | REACTIVATION_HVB/HVC | 11 | 2 | 0 | yes | < 1 day - 6 months | 1 | 32.1 | 10 | 44 | 0 | 0 | 1 | 0 | 0 | –
O=C(O)c1cc(/N=N/c2ccc(S(=O)(=O)Nc3ccccn3)cc2)ccc1O [SULFASALAZINE] | Allergic | 0 | 50 | DUCTOPENIE RC/COTRIMOXAZOLE/MESALAZINE/OLSALAZINE | 31 | 14 | 0 | yes | 1 day - 1 year | 1 | 5.7 | 44 | 26.7 | 0 | 11 | 11 | 2 | 0 | –
CN1C(=O)CN=C(c2ccccc2)c2cc(Cl)ccc21 [DIAZEPAM] | Allergic | 0 | 12 | AC_ANTI-N/-M #CBP | 3 | 9 | 0 | yes | 2 days - 9 years | 0 | 0 | 1 | 7.1 | 0 | 1 | 1 | 0 | 0 | –
CCN(CC)CCNC(=O)c1ccc(N)cc1 [PROCAINAMIDE] | Allergic | 0 | 4 | AC_ANTI-M3 | 1 | 4 | 0 | yes | 3 hours - 3 months | 0 | – | 1 | – | 0 | 4 | – | 0 | 0 | Hepatotoxicity (acute) ([11]; Liver): 0%; Hepatotoxicity (moderate) ([13]; Liver): 0%; Hepatotoxicity (severe hepatitis) ([16]; Liver): 0
COc1cc(C)c(/C=C/C(C)=C/C=C/C(C)=C/C(=O)O)c(C)c1C [ACITRETIN] | Dose-dependant | 1 | 12 | CHOLANGIOLITE CHOLESTASE_PROLONGEE AGGRAVATION_HVA | 5 | 1 | 0 | yes | 1.5 hours - 5 months | 0 | 10 | 16 | 30 | 0 | 0 | 0 | 2 | 0 | –
